Data published in patent US20190127313A1, “ANTIMICROBIAL AGENTS” (THE UNIVERSITY OF WARWICK, priority 2016, published 2019).
In brackets after ≈: the same amount, converted by molar mass.

Assays:
[1] = Alkaline hydrolysis of the ester linkage, LC-MS analysis; type: physicochemical; settings: 0.4M KOH, 37° C., 4h
Protocol: The relative stereochemistry of the dihydroxycyclohexane carboxylic acid (DHCCA) moiety in vibroxin was determined by hydrolyzing the ester linkage in vibroxin under basic conditions. […] The same was not true for the corresponding portion of enacyloxin, which had degraded. […] The alkaline hydrolysis reaction was carried out by combining 15 μl of a 5 mg/ml solution of vibroxin/enacyloxin in methanol with 185 μl 0.4M KOH. Following incubation at 37° C. for 4h, the mixture was acidified (<pH 4) with 35% HCl. The samples were analysed by UHPLC-ESI-QTOF-MS analysis using a Dionex UltiMate 3000 RS UHPLC connected to a Zorbax Eclipse Plus column (C18, 100×2.1 mm, 1.8 μm) coupled to a Bruker MaXis IMPACT mass spectrometer. The mass spectrometer was operated in positive ion mode with a scan range of 50-3000 m/z.

[2] = system: multidrug-resistant A. baumannii strains; experiment: MIC against multidrug-resistant A. baumannii strains; type: cell-based; settings: Acinetobacter baumannii
Protocol: Minimal inhibitory concentrations (MICs) were determined by the CLSI broth microdilution method. Briefly, representative members of the ESKAPE panel of pathogens were grown overnight in Mueller-Hinton (MH) broth at 30° C. Each organism was diluted to a final concentration of 5×10^5 […] using McFarland turbidity standards. Concentrations of vibroxin followed twofold dilutions starting at 32 μg/mL. Assays were incubated for 18h at 30° C.

[3] = system: A2780 human ovarian cancer cells; experiment: Cytotoxicity, SRB assay, A2780 cells; type: cell-based; settings: 24 h exposure, 72 h recovery
Protocol: The cells were obtained from the European Collection of Animal Cell Culture and grown as single monolayers in Roswell Park Memorial Institute medium (RPMI-1640) supplemented with 10% (v/v) fetal calf serum, 1% (v/v) 2 mM L-glutamine and 1% (v/v) penicillin (10 k units/mL)/streptomycin (10 mg/mL). Cells were kept at 310 K in a humidified atmosphere containing 5% CO2 and maintenance passages were done at ca. 80% confluency.
For cytotoxicity measurements, 96-well plates were used to seed 5000 A2780 cells per well. These were left to pre-incubate in drug-free media at 310 K for 48 h before adding various concentrations of vibroxin. A stock solution of vibroxin was prepared in 5% v/v DMSO and 95% v/v cell culture medium. Then, serial dilutions with culture medium were carried out to achieve working concentrations. […] The percentage of viable cells resulting from exposure to vibroxin was determined by measuring the absorbance due to soluble sulforohodamine relative to an untreated control. The absorbance measurements were carried out using a BioRad iMark microplate reader with a 470 nm filter. Mean percentage cell viability values+/−1 standard deviation were calculated from duplicates of triplicates in two independent sets of experiments.

[4] = system: Acinetobacter baumannii DSM25645; experiment: MIC/MBC by CLSI broth microdilution, ESKAPE panel; type: cell-based
Protocol: (§1) Minimal inhibitory concentrations (MICs) were determined by the CLSI broth microdilution method. Briefly, representative members of the […] panel of pathogens were grown overnight in Mueller-Hinton (MH) broth at 30° C. Each organism was diluted to a final concentration of 5×10^5 […] using McFarland turbidity standards. Concentrations of vibroxin followed twofold dilutions starting at 32 μg/mL. Assays were incubated for 18h at 30° C. […] Cell suspensions without visible growth were then plated out on LB agar plates to determine the minimal bactericidal concentration (MBC). The MBC was set as the lowest concentration required to kill 99.9% of the originally inoculated 5.10^5 CFU/ml. All MIC and MBC determinations were performed in triplicate.

[5] = system: Acinetobacter baumannii S1; experiment: MIC/MBC by CLSI broth microdilution, ESKAPE panel; type: cell-based
Protocol: as §1

[6] = system: Acinetobacter baumannii ATCC17978; experiment: MIC/MBC by CLSI broth microdilution, ESKAPE panel; type: cell-based
Protocol: as §1

[7] = system: Acinetobacter baumannii AB5075; experiment: MIC/MBC by CLSI broth microdilution, ESKAPE panel; type: cell-based
Protocol: as §1

[8] = system: Acinetobacter baumannii AYE; experiment: MIC/MBC by CLSI broth microdilution, ESKAPE panel; type: cell-based
Protocol: as §1

[9] = system: Enterobacter cloacae DSM16690; experiment: MIC by CLSI broth microdilution, ESKAPE panel; type: cell-based; settings: MH broth, 18h at 30° C.
Protocol: as §1

[10] = system: Pseudomonas aeruginosa DSM29239; experiment: MIC by CLSI broth microdilution, ESKAPE panel; type: cell-based; settings: MH broth, 18h at 30° C.
Protocol: as §1

[11] = system: Enterococcus faecium DSM25390; experiment: MIC by CLSI broth microdilution, ESKAPE panel; type: cell-based; settings: MH broth, 18h at 30° C.
Protocol: as §1

[12] = system: Klebsiella pneumoniae DSM26371; experiment: MIC by CLSI broth microdilution, ESKAPE panel; type: cell-based; settings: MH broth, 18h at 30° C.
Protocol: as §1

[13] = system: Staphylococcus aureus DSM21979; experiment: MIC by CLSI broth microdilution, ESKAPE panel; type: cell-based; settings: MH broth, 18h at 30° C.
Protocol: as §1

[14] = system: A. baumannii strains; settings: see Furukawa et al. 2007; cited from earlier work
[15] = lowest concentration required to kill 99.9%

Compound	polyketide chain resulting from alkaline hydrolysis of the ester linkage, detection by LC-MS [1]	MIC [2] [µg/mL]	IC50 [3] [µM]	chemical stability (comparison) ([1]; alkaline hydrolysis)	MIC ([4]; MH broth, 18h at 30° C.) [µg/mL]	MBC [4, 15] [µg/mL]	MIC ([5]; MH broth, 18h at 30° C.) [µg/mL]	MBC [5, 15] [µg/mL]	MIC ([6]; MH broth, 18h at 30° C.) [µg/mL]	MBC [6, 15] [µg/mL]	MIC ([7]; MH broth, 18h at 30° C.) [µg/mL]	MBC [7, 15] [µg/mL]	MIC ([8]; MH broth, 18h at 30° C.) [µg/mL]	MBC [8, 15] [µg/mL]	MIC [9] [µg/mL]	MIC [10] [µg/mL]	MIC [11] [µg/mL]	MIC [12] [µg/mL]	MIC [13] [µg/mL]	MIC [14] [µg/mL]
CC/C=C/[C@@H](OC(N)=O)[C@@H](Cl)[C@H](O)CC(=O)[C@@H](O)[C@H](O)C(C)/C(Cl)=C/C=C/C=C(C)/C=C/C=C/C(=O)O[C@@H]1CC(C(=O)O)CC[C@@H]1O (stereo partly shown) [enacyloxin, enacyloxin IIa, reference compound]	had degraded	2 (≈ 2.85 µM)	–	–	–	–	–	–	–	–	–	–	–	–	–	–	–	–	–	–
CC(/C=C/C=C/C(=O)OC1CC(C(=O)O)CCC1O)=C\C=C\C=C(/Cl)C(C)C(O)C(O)C(O)CC(O)/C=C/C=C/C(C)C (stereo not shown) [vibroxin]	could also be detected by LC-MS	2 (≈ 3.21 µM)	50 to 100	greater chemical stability than enacyloxin	2 (≈ 3.21 µM)	8 (≈ 12.8 µM)	1 (≈ 1.6 µM)	8 (≈ 12.8 µM)	2 (≈ 3.21 µM)	8 (≈ 12.8 µM)	2 (≈ 3.21 µM)	4 (≈ 6.42 µM)	2 (≈ 3.21 µM)	4 (≈ 6.42 µM)	> 32	> 32	> 32	> 32	> 32	–
C-18 deschloro-enacyloxin	–	–	–	–	–	–	–	–	–	–	–	–	–	–	–	–	–	–	–	> 32
